Data from publication PMC11357256, “Selectivity Screening and Structure–Cytotoxic Activity Observations of Selected Oleanolic Acid (OA)-Type Saponins from the Amaranthaceae Family on a Wiade Panel of Human Cancer Cell Lines” (Molecules, 2024).

Assays:
[1] = test system: CCD 841 CoN; assay: MTT cell viability assay, CCD 841 CoN normal colon epithelial cells; format: cell-based; conditions: Homo sapiens
From the text: (§1) Cell lines used in the study were grouped as follows: skin panel (melanomas: HTB140, derived from metastatic site: lymph node, ATCC Hs 294 T; malignant A375, ATCC CRL-1619; stage I primary WM793, RRID:CVCL 8787; skin keratinocytes HaCaT); prostate panel (prostate carcinomas: Du145, derived from metastatic site: brain, ATCC HTB-81; grade IV PC3, derived from metastatic site: bone, ATCC CRL-1435, LNCaP, derived from the metastatic site: lymph node, ATCC CRL-1740; prostate epithelial, PNT2, ECACC 95012613); gastrointestinal panel (colorectal adenocarcinomas: Caco2, ATCC HTB-37, HT29, ATCC HTB-38, DLD-1, ATCC CCL-221, HCT116, ATCC CCL-247, and colon epithelial cells CCD 841 CoN, ATCC CRL-1790; hepatocellular carcinoma HepG2, ATCC HB-8065); thyroid panel (follicular thyroid carcinoma FTC133, ECACC 9406090, undifferentiated thyroid carcinoma 8505C, ECACC 94090184, papillary thyroid carcinoma TPC-1, SCC147, normal thyroid follicular epithelial Nthy-ori 3–1, ECACC 90011609); and breast panel (ER-positive breast adenocarcinoma MCF7, ATCC HTB-22; ER-negative breast adenocarcinoma MDA-MB-231, ATCC HTB-26; breast epithelial MCF10A, ATCC CRL-10317). Cells were grown under standard conditions (37 °C, 5% CO2, relative humidity), and culture media (DMEM/F12 for PNT2, WM 793, HT29, PC3, FTC133, 8505 C, MDA-MB-231, TPC-1; DMEM Low Glucose for DU145; DMEM High Glucose for HTB140, A375, HaCaT; MEM with NEAA for Caco2 and MCF7; RPMI1640 with sodium pyruvate for LNCaP; DMEM/F12 with 20 ng/mL epidermal growth factor (EGF), 10 μg/mL insulin, 0.5 μg/mL hydrocortisone, 100 ng/mL cholera toxin) for MCF10A) supplemented with 10% fetal bovine serum (FBS) or 5% donor horse serum for MCF10A, and 1% antibiotics solution (10,000 U penicillin and 10 mg streptomycin/mL) […], as previously described. All cell lines, culture media, and supplements were from Sigma-Aldrich (Germany).
(§2) The cells were seeded in 96-well plates (1.5 × 10^4 cells/well). After 24 h, fresh medium was added, containing the tested compounds (0.5–100 μg/mL) and incubated for 24 or 48 h. Cell viability was determined by MTT assay, according to the manufacturer’s instructions, as described previously. Each experiment was performed in triplicate. The absorbance was measured at 570 nm using a Biotek Synergy microplate reader (BioTek Instruments Inc., Winooski, VT, USA). Cell viability was expressed as a percent of control (untreated cells). Doxorubicin was used as a reference drug.

[2] = test system: MCF10A; assay: MTT cell viability assay, MCF10A normal breast epithelial cells; format: cell-based; conditions: Homo sapiens, MCF-10A
From the text: as §1, §2

[3] = test system: WM793; assay: MTT cell viability assay, WM793 primary melanoma cells; format: cell-based, human; conditions: for IC50: Homo sapiens
From the text: as §1, §2
The selectivity index (SI) was calculated from the following formula:SI = IC50 of compound in a normal cell line/IC50 of compound in cancer cell line.IC50, half maximal inhibitory concentration, is a concentration required to kill 50% of the cells.

CC1(C)CCC2(C(=O)O)CCC3(C)C(=CCC4C5(C)CCC(OC6OC(C(=O)O)C(O)C(O)C6O)C(C)(C)C5CCC43C)C2C1 [CE, oleanolic acid-3-O-β-D-glucuronopyranoside]
IC50 ([1]; 24 h): > 100 µg/mL
IC50 ([1]; 48 h): > 100 µg/mL
IC50 ([2]; 24 h): > 100 µg/mL
IC50 ([2]; 48 h): > 100 µg/mL
IC50 ([3]; WM793, 24 h): 2.4 µg/mL
IC50 ([3]; WM793, 48 h): 1.2 µg/mL
Selectivity Index (SI) ([3]; IC50 HaCaT / IC50 WM793, 24 h): 2.1
Selectivity Index (SI) ([3]; IC50 HaCaT / IC50 WM793, 48 h): 1.6
